Assay [1] addresses T1, Pancreatic CCK receptor (Rattus norvegicus, UniProt P30551).
T1 construct: Pancreatic receptor membranes were prepared; from tissue; host or cells: rat pancreas membranes
T1 sequence (P30551 1-444): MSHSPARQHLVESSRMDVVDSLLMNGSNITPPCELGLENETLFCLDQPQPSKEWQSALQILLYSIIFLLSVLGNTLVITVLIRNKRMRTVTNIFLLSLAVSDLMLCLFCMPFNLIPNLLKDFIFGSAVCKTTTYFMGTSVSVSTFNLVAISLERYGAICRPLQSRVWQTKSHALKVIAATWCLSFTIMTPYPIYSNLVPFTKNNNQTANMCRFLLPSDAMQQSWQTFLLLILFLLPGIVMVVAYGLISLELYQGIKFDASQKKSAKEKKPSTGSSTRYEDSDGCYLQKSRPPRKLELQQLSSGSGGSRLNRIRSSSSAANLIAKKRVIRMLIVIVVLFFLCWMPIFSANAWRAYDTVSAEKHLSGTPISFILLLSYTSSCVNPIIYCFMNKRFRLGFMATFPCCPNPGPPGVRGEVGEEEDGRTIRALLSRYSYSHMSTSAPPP
The assay can be described thus: Pancreatic cholecystokinin receptor binding assay (125I-CCK-8). As to conditions: rat pancreas membranes, 37° C., 30 minutes. As to the method: Radiolabeled CCK-8 was purchased from New England Nuclear as ^125 I-CCK-8 Receptor binding was performed according to Innis and Snyder Proc. Natl. Acad. Sci., 77, 6917 (1980), with the minor modification of adding the additional protease inhibitors, phenylmethane sulfonyl fluoride (PMSF) and o-phenanthroline, which have no effect on the ^125 I-CCK receptor binding assay. All assays were performed in triplicate. Pancreatic receptor membranes were prepared by homogenzing a gram of fresh rat pancreas tissue in 30 ml TRIS-HCl (50 mM), pH 7.7 using a Brinkman polytron PT10 (Brinkman). The homogenate was washed twice and collected by centrifugation at 48,000×g at 4° C. for 10 minutes. The membranes were resuspended in assay buffer consisting of 5 mM dithiothieitol, 0.1 mM bacitiacin, 5 mM MgCl2.H2 O, 0.2% heat denatured BSA, 1.2 mM PMSF and 0.5 mM O-phenanthroline at a concentration of 100 ml per gram of pancreas. […] The reaction mixtures were mixed briefly and placed in a 37° C. water bath with gentle shaking for 30 minutes. The reaction mixtures were then diluted with 4 ml of ice-cold TRIS buffer, pH 7.7, containing 1 mg/ml bovine serum albumin and immediately filtered in Watman G F/B filters. The filters were washed with 3×4 ml of the same buffer and the radioactivity associated with the filters was counted in a Beckman Gamma 5500 counter. Broths were prepared by adding two volumes of acetone to original broth; supernatants were freeze dried after centrifugation at 1500 g for 10 minutes. The dried samples were then brought up in methanol/H2 O (1:1) and ready for assay.

The conditions of assay [2]: cited from earlier work.
Assay [3] has as its system gastric acid secretion. The settings on record: cited from earlier work.

Where only a bound is given, the exact number is not on record here.

As for `CC1=C\C=C\C(=O)Cc2nc(co2)C(=O)N2CCC=C2C(=O)O[C@H](C(C)C)[C@H](C)/C=C/C(=O)NC\C=C\1` [Compound III], the IC50 in assay [1] was greater than 10 µM.
Compound `CC1=C\C=C\[C@H](O)Cc2nc(co2)C(=O)N2CCC=C2C(=O)O[C@H](C(C)C)[C@H](C)/C=C/C(=O)NC\C=C\1` [Compound II] registered a 50% inhibitory concentration (IC50) in assay [1] greater than 10 µM.
As to `CC1=C\C=C\[C@@H](O)Cc2nc(co2)C(=O)N2CCC=C2C(=O)O[C@H](C(C)C)[C@H](C)/C=C/C(=O)NC\C=C\1` [Compound I], the IC50 in assay [1] was greater than 10 µM.
On the same count and under the same terms, to `CC1=C\[C@@H](O)CC(=O)Cc2nc(co2)C(=O)N2CCC=C2C(=O)O[C@H](C(C)C)[C@H](C)/C=C/C(=O)NC\C=C\1` [Virginiamycin M1] belongs greater than 100 µM.
Turning to “C-terminal octapeptide: C-terminal octapeptide of CCK”, the “efficacy relative to CCK-33” value in assay [2] (compared with CCK-33) is given as “same efficacy”. In addition, the “potency relative to CCK-33” value in assay [2] (more potent than CCK-33) is “approximately ten”.
Turning to Gastrin-17, in assay [3] (more potent than Gastrin-13, gastric acid secretion), the “potency relative to Gastrin-13” value is recorded as 2.5 times. The “potency relative to Gastrin-34” value in assay [3] (more potent than Gastrin-34, gastric acid secretion) was 5 times.

One may read the IC50 as the concentration needed to halve the response being measured. A higher IC50 goes with weaker potency in that assay.

The values above are taken from patent publication US5137900A, “Therapeutic virginiamycin M1 analogs” (Merck & Co., Inc., priority 1991, dated 1992).
